These results are taken from patent US20240376121A1, “COMPOUNDS AND USES THEREOF” (Foghorn Therapeutics Inc., priority 2021, published 2024).

Bounds are passed on as bounds.

In one assay the target is T1, HiBit-BRM fusion protein (Homo sapiens, UniProt P51531).
T1 construct: expressed in transfected cells
The assay is described as follows: HiBiT-BRM cell-based degradation assay (Nano-Glo HiBiT Lytic Detection). The note with it: stable HeLa cell line expressing HiBiT-BRM, 24 h incubation; for BRM HiBit Degradation Maximum (%): top dose 30 μM; for DC50: read-out: BRM HiBit Degradation IC50. The method, then: (§1) Procedure: A stable HeLa cell line expressing HiBiT-BRM was generated. On day 0, 5000 cells were seeded in 40 μL of media into each well of 384-well cell culture plates. On day 1, cells were treated with 120 nL DMSO or 120 nL of 3-fold serially DMSO-diluted compounds (10 points in duplicate with 30 μM as final top dose). Subsequently plates were incubated for 24 h in a standard tissue culture incubator and equilibrated at room temperature for 15 minutes. Nano-Glo HiBiT Lytic Detection System (Promega N3050) reagent was freshly prepared and 20 ul was added to each well. Upon addition of this LgBit-containing reagent, the HiBiT and LgBiT proteins associate to form the luminescent NanoBiT luciferase. The plates were shaken for 10 minutes at room temperature and the bioluminescence read using an EnVision plate reader (PerkinElmer).
(§2) The degradation % was calculated using the following formula: % degradation=100%−100%×(LumSample−LumLC)/(LumHC−LumLC). DMSO treated cells are employed as High Control (HC) and 2 μM of a known BRM/BRG1 degrader standard treated cells are employed as Low Control (LC).

The target of assay [1] is T2, HiBit-BRG1 fusion protein (Homo sapiens, UniProt P51532).
T2 construct: expressed in transfected cells
Nature of the assay: HiBiT-BRG1 cell-based degradation assay (Nano-Glo HiBiT Lytic Detection). The note with it: stable HeLa cell line expressing HiBit-BRG1 and LgBit, 24 h incubation; for Dmax: top dose 30 μM, read-out: BRG1 HiBit Degradation Maximum (%); for DC50: read-out: BRMG1 HiBit Degradation IC50. On the procedure:
as §1
For measurement of BRG1 degradation, a stable HeLa cell line expressing HiBit-BRG1 and LgBit was generated. The same protocol as above was then followed.
as §2

T1 sequence (P51531 whole entry, the tested form may be a part): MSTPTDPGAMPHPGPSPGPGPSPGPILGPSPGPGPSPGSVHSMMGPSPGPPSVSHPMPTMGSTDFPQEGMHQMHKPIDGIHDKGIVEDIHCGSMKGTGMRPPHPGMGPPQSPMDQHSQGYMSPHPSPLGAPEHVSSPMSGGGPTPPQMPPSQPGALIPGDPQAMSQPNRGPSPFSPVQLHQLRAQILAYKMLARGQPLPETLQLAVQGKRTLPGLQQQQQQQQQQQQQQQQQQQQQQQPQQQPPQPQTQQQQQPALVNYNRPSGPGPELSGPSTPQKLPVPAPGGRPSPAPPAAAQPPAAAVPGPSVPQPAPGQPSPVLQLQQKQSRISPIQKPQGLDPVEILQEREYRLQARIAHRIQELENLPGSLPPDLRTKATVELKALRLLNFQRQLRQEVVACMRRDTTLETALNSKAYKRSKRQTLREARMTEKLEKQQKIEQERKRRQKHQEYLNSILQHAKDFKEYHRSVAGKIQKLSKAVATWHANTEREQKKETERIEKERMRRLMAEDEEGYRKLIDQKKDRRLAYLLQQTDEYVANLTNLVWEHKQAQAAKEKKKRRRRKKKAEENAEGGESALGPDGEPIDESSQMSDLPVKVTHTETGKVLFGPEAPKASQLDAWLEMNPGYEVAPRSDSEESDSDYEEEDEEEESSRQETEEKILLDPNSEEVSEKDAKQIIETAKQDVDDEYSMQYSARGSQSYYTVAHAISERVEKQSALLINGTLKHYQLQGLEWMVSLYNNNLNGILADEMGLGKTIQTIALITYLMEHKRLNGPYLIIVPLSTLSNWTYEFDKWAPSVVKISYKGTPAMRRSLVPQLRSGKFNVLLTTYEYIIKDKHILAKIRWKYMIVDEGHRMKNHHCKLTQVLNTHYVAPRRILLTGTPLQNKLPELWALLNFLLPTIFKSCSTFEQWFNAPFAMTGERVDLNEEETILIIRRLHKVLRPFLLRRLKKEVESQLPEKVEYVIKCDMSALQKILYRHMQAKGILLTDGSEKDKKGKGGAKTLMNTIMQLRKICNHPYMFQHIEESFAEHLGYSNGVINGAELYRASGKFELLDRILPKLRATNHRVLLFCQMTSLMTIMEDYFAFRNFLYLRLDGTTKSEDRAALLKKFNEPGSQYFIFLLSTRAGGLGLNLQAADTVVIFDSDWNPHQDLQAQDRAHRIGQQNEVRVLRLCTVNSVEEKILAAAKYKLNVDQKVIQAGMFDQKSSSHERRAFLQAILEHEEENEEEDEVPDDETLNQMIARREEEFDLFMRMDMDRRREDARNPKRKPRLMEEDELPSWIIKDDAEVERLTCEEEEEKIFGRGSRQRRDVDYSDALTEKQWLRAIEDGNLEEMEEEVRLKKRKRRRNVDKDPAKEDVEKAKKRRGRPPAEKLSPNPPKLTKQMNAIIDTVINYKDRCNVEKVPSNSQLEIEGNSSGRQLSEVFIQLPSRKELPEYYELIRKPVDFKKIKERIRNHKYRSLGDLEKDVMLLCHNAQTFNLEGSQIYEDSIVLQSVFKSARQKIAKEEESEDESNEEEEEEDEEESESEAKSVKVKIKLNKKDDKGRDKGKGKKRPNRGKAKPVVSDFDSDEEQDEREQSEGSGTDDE
T2 sequence (P51532 whole entry, the tested form may be a part): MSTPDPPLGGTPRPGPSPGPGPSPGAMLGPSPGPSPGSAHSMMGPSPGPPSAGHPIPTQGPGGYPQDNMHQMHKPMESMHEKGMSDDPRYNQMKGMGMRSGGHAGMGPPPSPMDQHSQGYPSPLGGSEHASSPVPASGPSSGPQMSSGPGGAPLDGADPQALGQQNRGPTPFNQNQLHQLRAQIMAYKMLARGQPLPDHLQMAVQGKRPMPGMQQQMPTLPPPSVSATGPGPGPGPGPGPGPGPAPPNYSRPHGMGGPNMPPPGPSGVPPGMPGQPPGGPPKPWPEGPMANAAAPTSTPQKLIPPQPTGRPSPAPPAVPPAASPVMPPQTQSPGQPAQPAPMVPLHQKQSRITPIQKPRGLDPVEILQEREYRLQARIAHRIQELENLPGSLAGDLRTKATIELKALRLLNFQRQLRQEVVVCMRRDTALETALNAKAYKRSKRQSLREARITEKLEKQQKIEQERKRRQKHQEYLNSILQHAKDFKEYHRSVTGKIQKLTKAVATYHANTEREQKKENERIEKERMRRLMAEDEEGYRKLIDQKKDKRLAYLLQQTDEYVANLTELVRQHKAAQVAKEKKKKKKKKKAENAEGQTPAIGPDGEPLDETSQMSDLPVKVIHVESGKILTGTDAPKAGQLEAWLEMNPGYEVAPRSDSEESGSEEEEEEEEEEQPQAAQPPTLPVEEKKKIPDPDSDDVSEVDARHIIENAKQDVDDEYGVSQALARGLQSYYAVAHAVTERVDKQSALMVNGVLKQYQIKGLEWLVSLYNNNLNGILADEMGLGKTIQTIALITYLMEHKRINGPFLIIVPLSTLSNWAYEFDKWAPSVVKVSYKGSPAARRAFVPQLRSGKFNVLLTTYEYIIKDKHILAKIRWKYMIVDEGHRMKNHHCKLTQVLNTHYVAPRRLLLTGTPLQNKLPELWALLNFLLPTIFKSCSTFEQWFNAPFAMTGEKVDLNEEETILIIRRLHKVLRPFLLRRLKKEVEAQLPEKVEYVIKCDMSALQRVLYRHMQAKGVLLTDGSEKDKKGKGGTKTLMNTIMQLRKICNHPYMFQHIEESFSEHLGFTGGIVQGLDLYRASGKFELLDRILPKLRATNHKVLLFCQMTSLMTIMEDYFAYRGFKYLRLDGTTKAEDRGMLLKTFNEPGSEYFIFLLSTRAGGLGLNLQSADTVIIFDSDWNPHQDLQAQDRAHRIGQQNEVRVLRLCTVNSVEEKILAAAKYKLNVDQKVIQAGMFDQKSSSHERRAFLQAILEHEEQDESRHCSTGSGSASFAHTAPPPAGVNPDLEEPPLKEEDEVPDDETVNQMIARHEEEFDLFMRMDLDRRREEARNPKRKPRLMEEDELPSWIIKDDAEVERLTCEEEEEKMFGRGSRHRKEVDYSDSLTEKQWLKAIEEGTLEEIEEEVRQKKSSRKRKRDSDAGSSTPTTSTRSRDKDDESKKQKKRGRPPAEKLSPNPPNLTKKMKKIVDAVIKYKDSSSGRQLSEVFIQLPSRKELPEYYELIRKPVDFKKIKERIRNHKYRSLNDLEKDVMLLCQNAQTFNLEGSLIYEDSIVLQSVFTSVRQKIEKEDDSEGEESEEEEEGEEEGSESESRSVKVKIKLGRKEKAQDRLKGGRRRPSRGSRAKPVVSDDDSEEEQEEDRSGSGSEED

Regarding `Cc1cc([C@H](C(=O)N2C[C@H](O)C[C@H]2C(=O)NCc2ccc(-c3scnc3C)cc2OCCCN2CCC(c3sc4nnc(-c5ccccc5O)cc4c3C)CC2)C(C)C)on1` [Compound 57, (2S,4R)-4-hydroxy-N-(2-(3-(4-(3-(2-hydroxyphenyl)-5-methylthieno[2,3-c]pyridazin-6-yl)piperidin-1-yl)propoxy)-4-(4-methylthiazol-5-yl)benzyl)-1-((R)-3-methyl-2-(3-methylisoxazol-5-yl)butanoyl)pyrrolidine-2-carboxamide], at HiBit-BRM fusion protein, the “BRM HiBit Degradation Maximum (%)” value was “B (“B” indicates maximum degradation ≥ 50%)” and the DC50 was no less than 10 nM. Further, in assay [1], the Dmax is less than 50% and the DC50 is no less than 1000 nM.

Consider `Cc1ncsc1-c1ccc([C@H](C)NC(=O)[C@@H]2C[C@@H](O)CN2C(=O)[C@@H](c2cc(O[C@H]3C[C@H](N4CCC(c5sc6nnc(-c7ccccc7O)cc6c5C)CC4)C3)no2)C(C)C)cc1` [Compound 59, (2S,4R)-4-hydroxy-1-((R)-2-(3-((1r,3R)-3-(4-(3-(2-hydroxyphenyl)-5-methylthieno[2,3-c]pyridazin-6-yl)piperidin-1-yl)cyclobutoxy)isoxazol-5-yl)-3-methylbutanoyl)-N-((S)-1-(4-(4-methylthiazol-5-yl)phenyl)ethyl)pyrrolidine-2-carboxamide], for which, at HiBit-BRM fusion protein, the “BRM HiBit Degradation Maximum (%)” value is recorded as “A (“A” indicates maximum degradation ≥ 75%)” and the DC50 was no less than 1000 nM. In assay [1], the Dmax is less than 50% and the DC50 is no less than 1000 nM.

Turning to `Cc1ncsc1-c1ccc([C@@H](C)NC(=O)[C@H]2C[C@H](O)CN2C(=O)[C@H](c2cc(OCCN3CC(Cc4cc5cc(-c6ccccc6O)nnc5s4)C3)no2)C(C)C)cc1` [Compound 23], at HiBit-BRM fusion protein, the “BRM HiBit Degradation Maximum (%)” value is “B (“B” indicates maximum degradation ≥ 50%)” and the DC50 is no less than 100 nM. Further, in assay [1], the Dmax is less than 50% and the DC50 was no less than 1000 nM.

On to `Cc1ncsc1-c1ccc([C@H](C)NC(=O)[C@@H]2C[C@@H](O)CN2C(=O)[C@@H](c2cc(OCCCN3CCC(c4sc5nnc(-c6ccccc6O)cc5c4C)CC3)no2)C(C)C)cc1` [Compound 95, (2S,4R)-4-hydroxy-1-((R)-2-(3-(3-(4-(3-(2-hydroxyphenyl)-5-methylthieno[2,3-c]pyridazin-6-yl)piperidin-1-yl)propoxy)isoxazol-5-yl)-3-methylbutanoyl)-N-((S)-1-(4-(4-methylthiazol-5-yl)phenyl)ethyl)pyrrolidine-2-carboxamide], for which, at HiBit-BRM fusion protein, the “BRM HiBit Degradation Maximum (%)” value is “A (“A” indicates maximum degradation ≥ 75%)” and the DC50 is less than 10 nM. Moreover, in assay [1], the Dmax was less than 50% and the DC50 was no less than 1000 nM.

In the case of `Cc1ncsc1-c1ccc([C@H](C)NC(=O)[C@@H]2C[C@@H](O)CN2C(=O)[C@@H](c2cc(OCCN3C[C@@H]4[C@H](C3)[C@H]4c3cc4cc(-c5ccccc5O)nnc4s3)no2)C(C)C)cc1` [Compound 32], at HiBit-BRM fusion protein, the “BRM HiBit Degradation Maximum (%)” value is listed as “A (“A” indicates maximum degradation ≥ 75%)” and the DC50 is no less than 10 nM. In addition, in assay [1], the Dmax is less than 50% and the DC50 was no less than 1000 nM.

With `Cc1ncsc1-c1ccc([C@H](C)NC(=O)[C@@H]2C[C@@H](O)CN2C(=O)[C@@H](c2cc(OCCN[C@@H]3CCc4sc5nnc(-c6ccccc6O)cc5c4C3)no2)C(C)C)cc1` [Compound 40, (2S,4R)-4-hydroxy-1-((R)-2-(3-(2-(((R)-3-(2-hydroxyphenyl)-5,6,7,8-tetrahydrobenzo[4,5]thieno[2,3-c]pyridazin-6-yl)amino)ethoxy)isoxazol-5-yl)-3-methylbutanoyl)-N—((S)-1-(4-(4-methylthiazol-5-yl)phenyl)ethyl)pyrrolidine-2-carboxamide], at HiBit-BRM fusion protein, the “BRM HiBit Degradation Maximum (%)” value is given as “C (“C” indicates maximum degradation < 50%)” and the DC50 is no less than 1000 nM. Further, in assay [1], the Dmax is less than 50% and the DC50 is no less than 1000 nM.

Regarding `Cc1ncsc1-c1ccc([C@H](C)NC(=O)[C@@H]2C[C@@H](O)CN2C(=O)[C@@H](c2cc(OCCN3C[C@H]4C[C@@H](C3)[C@@H]4c3cc4cc(-c5ccccc5O)nnc4s3)no2)C(C)C)cc1` [Compound 71, (2S,4R)-4-hydroxy-N-[(1S)-1-[4-(4-methyl-1,3-thiazol-5-yl)phenyl]ethyl]-1-[(2R)-3-methyl-2-(3-{2-[(1R,5S,6r)-6-[3-(2-hydroxyphenyl)thieno[2,3-c]pyridazin-6-yl]-3-azabicyclo[3.1.1]heptan-3-yl]ethoxy}-1,2-oxazol-5-yl)butanoyl]pyrrolidine-2-carboxamide], at HiBit-BRM fusion protein, the “BRM HiBit Degradation Maximum (%)” value is listed as “A (“A” indicates maximum degradation ≥ 75%)” and the DC50 was no less than 10 nM. Moreover, in assay [1], the Dmax was less than 50% and the DC50 is no less than 1000 nM.

With `Cc1ncsc1-c1ccc([C@H](C)NC(=O)[C@@H]2C[C@@H](O)CN2C(=O)[C@@H](c2cc(N3CCC(N4CC(c5cc6nnc(-c7ccccc7O)cc6s5)C4)CC3)no2)C(C)C)cc1` [Compound 105, (2S,4R)-4-hydroxy-1-((R)-2-(3-(4-(3-(3-(2-hydroxyphenyl)thieno[3,2-c]pyridazin-6-yl)azetidin-1-yl)piperidin-1-yl)isoxazol-5-yl)-3-methylbutanoyl)-N-((S)-1-(4-(4-methylthiazol-5-yl)phenyl)ethyl)pyrrolidine-2-carboxamide], on HiBit-BRM fusion protein, the “BRM HiBit Degradation Maximum (%)” value is recorded as “A (“A” indicates maximum degradation ≥ 75%)” and the DC50 is less than 10 nM. Also, in assay [1], the Dmax was less than 50% and the DC50 was no less than 1000 nM.

On to `Cc1ncsc1-c1ccc([C@H](C)NC(=O)[C@@H]2C[C@@H](O)CN2C(=O)[C@@H](c2cc(OCCN3CCC(c4cc5cc(-c6ccccc6O)nnc5s4)CC3)no2)C(C)C)cc1` [Compound 2, (2S,4R)-4-hydroxy-1-((R)-2-(3-(2-(4-(3-(2-hydroxyphenyl)thieno[2,3-c]pyridazin-6-yl)piperidin-1-yl)ethoxy)isoxazol-5-yl)-3-methylbutanoyl)-N—((S)-1-(4-(4-methylthiazol-5-yl)phenyl)ethyl)pyrrolidine-2-carboxamide], for which, at HiBit-BRM fusion protein, the “BRM HiBit Degradation Maximum (%)” value is listed as “A (“A” indicates maximum degradation ≥ 75%)” and the DC50 was no less than 10 nM. Also, in assay [1], the Dmax was less than 50% and the DC50 is no less than 1000 nM.

With `Cc1ncsc1-c1ccc([C@H](C)NC(=O)[C@@H]2C[C@@H](O)CN2C(=O)[C@@H](c2cc(OCCN3C[C@@H]4[C@H](C3)[C@H]4c3c(C)sc4nnc(-c5ccccc5O)cc34)no2)C(C)C)cc1` [Compound 21], on HiBit-BRM fusion protein, the “BRM HiBit Degradation Maximum (%)” value is reported as “C (“C” indicates maximum degradation < 50%)” and the DC50 was no less than 1000 nM. Moreover, in assay [1], the Dmax was less than 50% and the DC50 is no less than 1000 nM.

For `Cc1ncsc1-c1ccc([C@H](C)NC(=O)[C@@H]2C[C@@H](O)CN2C(=O)[C@@H](c2cc(OCCN[C@H]3CCc4sc5nnc(-c6ccccc6O)cc5c4C3)no2)C(C)C)cc1` [Compound 39, (2S,4R)-4-hydroxy-1-((R)-2-(3-(2-(((S)-3-(2-hydroxyphenyl)-5,6,7,8-tetrahydrobenzo[4,5]thieno[2,3-c]pyridazin-6-yl)amino)ethoxy)isoxazol-5-yl)-3-methylbutanoyl)-N—((S)-1-(4-(4-methylthiazol-5-yl)phenyl)ethyl)pyrrolidine-2-carboxamide], on HiBit-BRM fusion protein, the “BRM HiBit Degradation Maximum (%)” value is reported as “C (“C” indicates maximum degradation < 50%)” and the DC50 was no less than 1000 nM. Besides, in assay [1], the Dmax is less than 50% and the DC50 was no less than 1000 nM.

For `Cc1ncsc1-c1ccc([C@@H](C)NC(=O)[C@H]2C[C@H](O)CN2C(=O)[C@H](c2cc(OCCN3C[C@@H]4[C@H](C3)[C@H]4c3sc4nnc(-c5ccccc5O)cc4c3C)no2)C(C)C)cc1` [Compound 15], on HiBit-BRM fusion protein, the “BRM HiBit Degradation Maximum (%)” value is “A (“A” indicates maximum degradation ≥ 75%)” and the DC50 is no less than 10 nM. In addition, in assay [1], the Dmax was less than 50% and the DC50 was no less than 1000 nM.

Turning to `Cc1ncsc1-c1ccc(CNC(=O)[C@H]2C[C@H](O)CN2C(=O)[C@H](NC(=O)CCC(=O)N2CC(c3sc4nnc(-c5ccccc5O)cc4c3C)C2)C(C)(C)C)cc1` [Compound 20], at HiBit-BRM fusion protein, the “BRM HiBit Degradation Maximum (%)” value is on record as “C (“C” indicates maximum degradation < 50%)” and the DC50 was no less than 1000 nM. In addition, in assay [1], the Dmax is less than 50% and the DC50 was no less than 1000 nM.

For `Cc1ncsc1-c1ccc([C@H](C)NC(=O)[C@@H]2C[C@@H](O)CN2C(=O)[C@@H](c2cc(OCCN3CCC(c4sc5nnc(-c6ccccc6O)cc5c4C)CC3)no2)C(C)C)cc1` [Compound 8, (2S,4R)-4-hydroxy-1-[(2R)-2-[3-(2-{4-[3-(2-hydroxyphenyl)-5-methylthieno[2,3-c]pyridazin-6-yl]piperidin-1-yl}ethoxy)-1,2-oxazol-5-yl]-3-methylbutanoyl]-N-[(1S)-1-[4-(4-methyl-1,3-thiazol-5-yl)phenyl]ethyl]pyrrolidine-2-carboxamide], at HiBit-BRM fusion protein, the “BRM HiBit Degradation Maximum (%)” value was “A (“A” indicates maximum degradation ≥ 75%)” and the DC50 was less than 10 nM. In addition, in assay [1], the Dmax is less than 50% and the DC50 was no less than 1000 nM.
